According to article PMC5984089, “FBXW7 regulates DISC1 stability via the ubiquitin-proteosome system” (Molecular Psychiatry, 2017):
Residues, ends and D or L forms follow the SMILES beside them. *: point of attachment. Cbz = O=C(OCc1ccccc1)*

System: DISC1, neural progenitors derived from control subjects
Assay: DISC1 protein level in control iPS-derived neural progenitors, western blot
Format: cell-based, human
Settings: MG132 10 µM, day 18, up to 3 hours, n=2, western blot
Source text: All iPS derived neural progenitors were provided by Pfizer Neuroscience (Cambridge, MA, USA). The iPS cell lines D2 and D3 and family control cell line C1 were generated using a non-integrated approach by Dr Hongjun Song at Johns Hopkins University and cultured as described previously.[8] The Detroit iPS cell line was generated by Dr S. Engle at Pfizer Neuroscience. Detroit 551 fibroblasts were obtained from ATCC (CCL-110) and maintained in Knockout DMEM (Life Technologies 10829-018), 15% FBS (Life Technologies), 1x Non-essential amino acids (Life Technologies 11140-050), 2 mM L-glutamine (Life Technologies 25030-081), 1x Gentamicin (Life Technologies 15710-072), 0.1 mM β-mercaptoethanol (Sigma M-7522). The cells were reprogrammed with individual lentiviruses expressing c-MYC, KLF4, SOX2, OCT3/4, NANOG, and LIN28. One colony, Detroit 551-3, with ES-like morphology, high expression of pluripotency markers (for example, OCT3/4, TRA-1-60, TRA-1-81, SSEA4), a normal karyotype, […] the ability to form all three germ layers in a teratoma assay was used in all subsequent experiments. […]

CC(C)C[C@@H](C=O)NC(=O)[C@H](CC(C)C)NC(=O)[C@H](CC(C)C)NC(=O)OCc1ccccc1 [MG132] (Cbz-Leu-Leu-Leu-aldehyde)
DISC1 protein level in NPs from Detroit (control) iPS cells, proteasomal inhibition: stabilization of DISC1 protein levels within first 30 min up to 3 hours
